“And” between values parts separate entries of the source, which are not always exact repeats. Identical values can stand only once.
What was measured:
Type in all cases: functional, Homo sapiens
Design in all cases: dose or concentration left out as unconfirmed
[1] = tested on: Colon cancer organoid; assay: (§1) Image-based profiling of donated chemical probes and chemogenomic kinase set in O06 CRC organoid. Image analysis is performed on the sum area metric, and the data were normalized to the DMSO control. After imaging the organoid viability is measured using the OneGloEX Luciferase Assay System. The normalized viability data and sum area are reported.
[2] = tested on: Colon cancer organoid; assay: as §1, with “O21” for “O06”
[3] = tested on: Colon cancer organoid; assay: as §1, with “O09” for “O06”

Row | SMILES | Cell Viability ([1]; Replication number 1) | Cell Viability ([1]; Replication number 2) | Cell Viability ([2]; Replication number 1) | Cell Viability ([2]; Replication number 2) | Cell Viability ([3]; Replication number 1) | Cell Viability ([3]; Replication number 2)
1 | CN(C)CC#Cc1ccc(OCCCc2sc(N3CCc4cccc(C(=O)Nc5nc6ccccc6s5)c4C3)nc2C(=O)O)c(F)c1 [A-1155463] | 0.4141% and 9.206% | 0.1987% and 7.04% | 47.3935% and 102.037% | 50.6709% and 99.4222% |  | 
2 | COc1cc(Nc2ncc3c(n2)-c2ccc(Cl)cc2C(c2c(F)cccc2OC)=NC3)ccc1C(=O)O [ALISERTIB] |  |  | 99.741% and 113.91% | 76.2077% and 81.6074% | 29.1632% and 19.7233% | 34.5212% and 21.703%
3 | CC(C)[C@H](C(=O)Nc1ccc(C(=O)NO)cc1)c1ccccc1 [AR-42] |  | 8.903% and 23.7546% | 145.989% and 67.015% | 137.871% and 83.2339% |  | 
4 | COc1ccc(Oc2cc(NCCC(F)(F)F)c3ncc(-c4ccc(C(=O)NC5CC5)c(C)c4)n3n2)c(F)c1F [BAY-1217389] |  |  | 50.4052% and 66.3415% | 55.0801% and 82.9075% | 16.1792% and 31.9152% | 23.535% and 27.535%
5 | CC[C@@H]1C(=O)N(C)c2cnc(Nc3ccc(C(=O)NC4CCN(C)CC4)cc3OC)nc2N1C1CCCC1 [BI-2536] |  |  | 25.994% and 61.8815% | 31.9179% and 66.7866% | 16.4106% and 42.6367% | 20.1367% and 38.0631%
6 | COc1c(OCCCN2CCOCC2)ccc2c1N=C(NC(=O)c1cnc(N)nc1)N1CCN=C21 [COPANLISIB] | 2.47% and 7.411% | 1.939% and 5.676% |  |  | 12.735% and 9.949% | 17.4919% and 14.9013%
7 | CCN(CCO)CCCOc1ccc2c(Nc3cc(CC(=O)Nc4cccc(F)c4)[nH]n3)ncnc2c1 [DEFOSBARASERTIB] |  |  | 70.1574% and 72.5399% | 94.5203% and 86.7079% | 28.5576% and 26.4792% | 25.188% and 21.7278%
8 | CN1CCN(Cc2ccc(Nc3ncc(Cl)c(Nc4ccccc4S(=O)(=O)N(C)C)n3)cc2)CC1 [DUBERMATINIB] | 1.098% and 2.141% | 1% and 3.825% |  |  | 4.849% and 7.106% | 5.761% and 10.5011%
9 | C[C@@H](Oc1cc(-n2cnc3ccc(CN4CCN(C)CC4)cc32)sc1C(N)=O)c1ccccc1C(F)(F)F [GSK-461364] |  |  | 31.4353% and 81.9512% |  | 31.4361% and 40.8914% | 27.3036% and 34.2838%
10 | CCn1cc(-c2ccnc3[nH]c(-c4cccc(CN(C)C)c4)cc23)c(-c2ccc(NC(=O)N(C)C)cc2)n1 [GSK-1070916] |  |  | 76.6328% and 71.3589% | 81.5265% and 81.1803% | 22.2316% and 23.9614% | 25.9157% and 31.5843%
11 | COc1cc2ncn(-c3cc(OCc4ccccc4C(F)(F)F)c(C(N)=O)s3)c2cc1OC [GW843682X] |  |  |  | 21.0036% and 58.1504% | 19.8463% and 25.1831% | 19.142% and 23.8097%
12 | CCN1CCN(c2ccc(Nc3cc(N(C)C(=O)Nc4c(Cl)c(OC)cc(OC)c4Cl)ncn3)cc2)CC1 [INFIGRATINIB] |  |  | 70.5365% and 84.7387% | 76.3419% and 87.5135% | 23.1721% and 22.7147% | 19.8415% and 27.805%
13 | CCS(=O)(=O)Nc1ccc(Oc2ccc(F)cc2F)c(-c2cn(C)c(=O)c3[nH]ccc23)c1 [MIVEBRESIB] |  |  | 39.7622% and 88.1777% | 36.307% and 74.642% | 15.7549% and 20.0077% | 18.5163% and 23.3766%
14 | N#CC1(c2ccccn2)CCN(Cc2cc(C(=O)O)c(=O)n3ccccc23)CC1 [MSD-M1PAM] |  |  | 89.7237% and 93.8523% | 106.363% and 84.1264% | 40.5981% and 75.2157% | 57.8261% and 79.5004%
15 | CC(=O)NCC(=O)N1[C@@H]2CC[C@H]1c1ccc(Nc3ncc(C(F)(F)F)c(NC4CCC4)n3)cc12 [PF-03814735] |  |  | 48.6382% and 56.6718% | 62.4502% and 65.7393% |  | 33.7645% and 14.7244%
16 | Cn1cc(CNCC2CCN(c3ncc(C(=O)NO)cn3)CC2)c2ccccc21 [QUISINOSTAT] |  |  |  |  | 11.6805% and 13.0062% | 13.8403% and 11.4602%
17 | C=CC(=O)N1CCC([C@@H]2CCNc3c(C(N)=O)c(-c4ccc(Oc5ccccc5)cc4)nn32)CC1 [ZANUBRUTINIB] |  |  | 87.382% and 84.1812% | 88.1261% and 101.331% | 34.0987% and 32.6632% | 34.2694% and 25.3214%

Reference: ChEMBL document CHEMBL5724558, “Image-based profiling of drug vulnerabilities in CRC organoids” (2024)
